Measured values as given in patent publication US20070213312A1, “Hif-1 Inhibitors and Methods of Use Thereof” (priority 2003, published 2007).
Residues, ends and D or L forms follow the SMILES beside them. *: point of attachment. Cbz = O=C(OCc1ccccc1)*

How the values were obtained:
HIF-1α [1] = test: HIF-1α detection in cells exposed to DBM plus metals (summary statements); type: cell-based, human; conditions: cells exposed to DBM plus the metal; HEK 293 and HT144 for Zn^2+
From the text: In subsequent studies, similar data has been found for HEK 293 human embryonic kidney cells and HT144 melanoma cells treated with either DBM or Zn^2+. […] This finding appears to be unique to the combination of DBM with Zn^2+ since it was not observed in cells exposed to DBM plus other metals such as Fe^3+, Co^2+, Cd^2+, and Ni^2+. Furthermore, this unexpected reversal of the independent effects of DBM and Zn^2+ was not blocked by hypoxia. These observations are counterintuitive since inhibitors of HIF P4H should impede degradation of HIF-1α. Also, these two HIF P4H inhibitors appear to work in concert under inhibitory conditions to down-regulate HIF-1α with little effect on HIF-1α mRNA levels.
Basal levels of HIF-1α are low in cells exposed to ambient oxygen, yet under these conditions both DBM and Zn^2+ stabilize HIF-1α and cause the accumulation of HIF-1α protein (FIG. 15). It has been shown that this stabilizing effect on HIF-1α was itself reversed by the concomitant addition of Zn^2+ to DBM under ambient oxygen. […] This destabilizing effect appears unique to the combination of DBM plus Zn^2+ since it was not observed with other metals known to form chelates with DBM such as Fe^3+, Co^2+, Cd^2+ and Ni^2+. […] Though assessment of downstream effectors of HIF-1α (e.g., VEGF) was not included in the preliminary data, the effects of DBM and cobalt on VEGF in LNCaP human prostate cancer cells have been previously reported.

HIF-1α [2] = conditions: LNCaP cells, ambient O2; cited from earlier work
VEGF = conditions: LNCaP cells, ambient O2; cited from earlier work
HIF-1α [3] = test: Western blot analysis of HIF-1α in HT144 melanoma cells under hypoxia (1% O2); type: cell-based, human; conditions: for HIF-1α levels by Western blot: HT 144 melanoma cells, 2 hours under 1% O2
Protocol: (§1) HT 144 melanoma cells (FIG. 16 (A)) and HEK 293 embryonic kidney cells (FIG. 16 (B)) were incubated for 2 hours under 1% O2. HIF-1α was detected by Western blot at baseline ([…] lane 1).

HIF-1α mRNA = test: Semiquantitative PCR (RT-PCR) of HIF-1α mRNA in HEK 293 cells under normoxia; type: cell-based, human; conditions: HEK 293, normoxia, 2 hours, serum free media
Protocol: The effects of DBM alone, Zn^2+ alone and DBM plus Zn^2+ on HIF-1α mRNA levels were assessed by semiquantitative PCR in extracts of HEK 293 kidney cells under normoxia for 2 hours in serum free media (FIG. 17). […] HIF-1αZ mRNA levels were not found to be increased (data not shown).

HIF-1α [4] = test: Western blot analysis of HIF-1α in HEK 293 cells under ambient oxygen (normoxia); type: cell-based, human; conditions: HEK 293, ambient oxygen; for HIF-1α levels by Western blot: 1 hr, DBM 100 μM, Zn^2+ 25 μM to 100 μM, alone or combined; for HIF-1α by Western blot: agent(s) without further addition; for HIF-1α by Western blot in the presence of proteosome inhibitor MG-132: MG-132 added to the agent(s)
Protocol: The first unexpected finding was that the combination of DBM plus Zn^2+ reversed the induced stabilization of HIF-1α observed when the cells were exposed to either DBM or Zn^2+ alone under normoxic conditions (FIG. 15). […] HIF-1α was not detected at baseline by Western blot (FIG. 15, lane 1).
Proteosomal degradation of HIF-1α was assessed in HEK 293 embryonic kidney cells treated with DBM alone, Zn^2+ alone or the combination under ambient oxygen in the presence or absence of the proteosome inhibitor MG-132 (FIG. 18). […] (FIG. 18, lane 5). […] The HIF-1α isoforms are more clearly resolved on the gel from FIG. 18 than FIG. 15. This may be due to differences in the time the gels were run.

HIF-1α [5] = test: Western blot analysis of HIF-1α in HEK 293 cells under hypoxia (1% O2); type: cell-based, human; conditions: 2 hours under 1% O2, metal added together with DBM
Protocol: as §1

HIF-1α [6] = test: Western blot analysis of HIF-1α in VHL (−/−) RCC-4 renal cell carcinoma cells under normoxia; type: cell-based, human; conditions: RCC-4 VHL (−/−), normoxic conditions; MG-132 for 1 hour
From the text: As expected, HIF-1α was detected by Western blot under normoxic conditions (FIG. 19, lane 1). […] These experiments have not been performed as yet in RCC4 cells with DBM alone or in RCC4 cells transfected with pVHL.

HIF-1αZ = conditions: cited from earlier work
kidney cancer = conditions: patients with metastatic disease, high doses; cited from earlier work

[Cd+2] [Cd^2+]
Loss of HIF-1α (no HIF-1α detected) when metal is combined with DBM (HIF-1α [1]): not observed

[Co+2] [Co^2+, reference compound]
HIF-1α levels (HIF-1α [2]): rapidly increase | VEGF levels (VEGF): rapidly increase | Loss of HIF-1α (no HIF-1α detected) when metal is combined with DBM (HIF-1α [1]): not observed

O=C(CC(=O)c1ccccc1)c1ccccc1 [DBM, 1,3-diphenylpropane-1,3-dione]
HIF-1α levels (HIF-1α [2]): rapidly increase | HIF-1α levels by Western blot (HIF-1α [3]): significantly increased the levels of HIF-1α | VEGF levels (VEGF): rapidly increase | HIF-1α mRNA levels by semiquantitative PCR (HIF-1α mRNA): not significantly different from baseline | HIF-1α levels by Western blot (HIF-1α [4]): significant increase in HIF-1α levels | HIF-1α by Western blot (HIF-1α [4]; 2 hours): readily detected | HIF-1α by Western blot in the presence of proteosome inhibitor MG-132 (HIF-1α [4]): did not stabilize these other forms of HIF-1α

[Fe+3] [Fe^3+]
Effect of metal added to DBM on HIF-1α levels by Western blot (HIF-1α [3]; HT 144 cells, 2 hours under 1% O2, metal added together with DBM): did not significantly alter the effect of DBM on HIF-1α levels | Effect of metal added to DBM on HIF-1α levels by Western blot (HIF-1α [5]): decreased slower migrating isoforms of HIF-1α | Loss of HIF-1α (no HIF-1α detected) when metal is combined with DBM (HIF-1α [1]): not observed

CC(C)C[C@@H](C=O)NC(=O)[C@H](CC(C)C)NC(=O)[C@H](CC(C)C)NC(=O)OCc1ccccc1 [MG-132, reference compound] (Cbz-Leu-Leu-Leu-aldehyde)
HIF-1α by Western blot (HIF-1α [6]): Stabilization of HIF-1α was enhanced | HIF-1α by Western blot (HIF-1α [4]; 2 hours): accumulation of a broad range of proteins that possibly represent ubiquitinated forms of HIF-1α

[Ni+2] [Ni^2+]
Loss of HIF-1α (no HIF-1α detected) when metal is combined with DBM (HIF-1α [1]): not observed

[Zn+2] [Zn^2+]
HIF-1α levels by Western blot (HIF-1α [3]): decreased the more rapidly migrating isoforms of HIF-1α | Zn^2+ concentration at which HIF-1αZ exhibits loss of exon 12 (HIF-1αZ): above 100 μM | HIF-1α mRNA levels by semiquantitative PCR (HIF-1α mRNA): not significantly different from baseline | HIF-1α levels by Western blot (HIF-1α [4]): increased HIF-1α levels in a dose dependent manner | Molecular weight of stabilized HIF-1α isoforms (HIF-1α [4]; 2 hours): higher molecular weight than those induced by DBM | HIF-1α by Western blot (HIF-1α [4]; 2 hours): readily detected | HIF-1α by Western blot in the presence of proteosome inhibitor MG-132 (HIF-1α [4]): did not stabilize these other forms of HIF-1α

bevacizumab: humanized monoclonal antibody specific for VEGF
Clinical responses (kidney cancer): Clinical responses have been observed
